Source: patent publication US20240067693A1, “POLYPEPTIDES AND USES THEREOF” (MEDIMMUNE LIMITED, priority 2020, published 2024)
Numbered stars: 1 amine (or outer) side, 2 acyl side, 3 side chain; on linkers, the order of the positions; unused ones are H or OH. Bridge positions count the residues as written; N and C are the ends. Square brackets hold non-standard residues; d marks the D form. Side chains are listed from the residue outwards. Peptide text beside a SMILES is read from it. * marks the point of attachment. C18 diacid = O=C(O)CCCCCCCCCCCCCCCCC(=O)*; γGlu = O=C(O)[C@H](CCC(=O)[*:2])N[*:1]; αMeF = C[C@](N)(Cc1ccccc1)C(=O)O; Aib = CC(C)(N)C(=O)O

What was measured:
[1] = target: T1, human amylin receptor (calcitonin receptor co-expressed with receptor activity modifying protein, RAMP3) (hAMYR3) (Homo sapiens, UniProt O60896+P30988); experiment: cAMP production in 1321N1 cells with stable recombinant expression of human amylin receptor (hAMYR3); type: cell-based; details: for Ratio (selectivity hAMYR vs hCTR, ratio of EC50 values at the two receptors): EC50 hCTR / EC50 hAMYR3; for EC50: cAMP, 1321N1 cells, assay buffer with 0.1% BSA, read-out: EC50 (pM) hAMYR3
T1 construct: expressed in transfected cells
T1 sequence (P30988 25-474): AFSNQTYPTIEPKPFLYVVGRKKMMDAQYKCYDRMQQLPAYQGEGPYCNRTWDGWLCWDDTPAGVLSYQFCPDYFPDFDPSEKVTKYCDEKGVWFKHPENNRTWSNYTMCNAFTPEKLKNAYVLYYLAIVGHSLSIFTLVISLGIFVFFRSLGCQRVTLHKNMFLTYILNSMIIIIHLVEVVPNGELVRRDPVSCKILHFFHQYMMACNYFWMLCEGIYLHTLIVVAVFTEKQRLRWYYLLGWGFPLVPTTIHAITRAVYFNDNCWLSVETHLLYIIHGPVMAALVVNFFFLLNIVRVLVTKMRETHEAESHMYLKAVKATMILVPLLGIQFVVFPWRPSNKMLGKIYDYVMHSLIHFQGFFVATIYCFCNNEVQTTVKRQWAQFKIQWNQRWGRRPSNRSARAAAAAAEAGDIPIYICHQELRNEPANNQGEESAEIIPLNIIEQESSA
T1 sequence (O60896 24-148 partner): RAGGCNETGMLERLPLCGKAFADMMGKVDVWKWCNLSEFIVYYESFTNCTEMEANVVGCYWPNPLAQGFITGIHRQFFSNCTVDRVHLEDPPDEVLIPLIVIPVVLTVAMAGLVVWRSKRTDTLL
Outline: (§1)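 EC50 values come from 4-parameter logistic fits of HTRF cAMP signal, normalised to maximal calcitonin or amylin effect. Peptides were tested in duplicate for 30 min at RT in IBMX-containing (0.5 mM) BSA/HEPES buffer pH 7.4 on stable 1321N1 (human CTR, AMYR3) or HEK (rat CTR, AMYR3) lines.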

[2] = target: T2, human calcitonin receptor (hCTR) (Homo sapiens, UniProt P30988); experiment: cAMP production in 1321N1 cells with stable recombinant expression of human calcitonin receptor (hCTR); type: cell-based; details: cAMP, 1321N1 cells, assay buffer with 0.1% BSA; read-out: EC50 (pM) hCTR
T2 construct: expressed in transfected cells
T2 sequence (P30988 25-474): T1 sequence (P30988 25-474)
Outline: as §1

[3] = Pharmacokinetic determination via IV and SC administration in Sprague Dawley rats; details: male, rat, plasma, 20 nmol/kg
[4] = Thioflavin T fibrillation assay; type: physicochemical; details: ThT fibrillation assay; peptide 1 mg/mL in 25 mM sodium acetate buffer pH 4.0; 6 days at 37 °C with shaking; >144 h = no increase
Outline: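 Peptides at 1 mg/mL in 25 mM sodium acetate pH 4.0 with ThT (from 0.25 mM stock), incubated 6 days at 37 °C with intermittent orbital shaking at 500–750 rpm. Fluorescence (ex 444/em 480 nm) read every 30 min; value is average time to a rise in baseline-corrected signal.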

| SMILES | Ratio (selectivity hAMYR vs hCTR, ratio of EC50 values at the two receptors) [1] | EC50 [1] | EC50 [2] | half-life ([3]; iv) | half-life ([3]; sc) | Time taken to detect increase in fluorescence intensity [4] |
| --- | --- | --- | --- | --- | --- | --- |
| CC[C@H](C)[C@H](NC(=O)[C@@H]1CCCN1C(=O)CNC(=O)[C@H](Cc1ccccc1)NC(=O)[C@H](CC(N)=O)NC(=O)[C@H](CC(N)=O)NC(=O)[C@H](CO)NC(=O)[C@H](CO)NC(=O)[C@H](Cc1c[nH]cn1)NC(=O)C(C)(C)NC(=O)[C@H](CC(C)C)NC(=O)[C@H](Cc1ccccc1)NC(=O)[C@H](CC(N)=O)NC(=O)[C@H](C)NC(=O)[C@H](CC(C)C)NC(=O)[C@H](CCCNC(=N)N)NC(=O)[C@H](CCC(N)=O)NC(=O)[C@@H](NC(=O)[C@H](C)NC(=O)[C@@H]1CSSC[C@H](NC(=O)[C@@H](N)CCCCNC(=O)CC[C@H](NC(=O)CCCCCCCCCCCCCCCCC(=O)O)C(=O)O)C(=O)N[C@@H](CC(N)=O)C(=O)N[C@@H]([C@@H](C)O)C(=O)N[C@@H](C)C(=O)N[C@@H]([C@@H](C)O)C(=O)N1)[C@@H](C)O)C(=O)N[C@@H](CC(C)C)C(=O)N1CCC[C@H]1C(=O)N1CCC[C@H]1C(=O)N[C@H](C(=O)N[C@@H](CCCNC(=N)N)C(=O)N[C@H](C(=O)NCC(=O)N[C@@H](CO)C(=O)N[C@@H](CC(N)=O)C(=O)N[C@H](C(=O)N[C@@H](Cc1ccc(O)cc1)C(N)=O)[C@@H](C)O)C(C)C)[C@@H](C)O [Peptide 155] (H-K([γGlu-C18 diacid])CNTATCATQRLANFL[Aib]HSSNNFGPILPPTRVGSNTY-NH2; disulfide 2-7; N-terminus assumed) | 11.9 | 329 pM | 3930 pM | 7.7 h | 8.9 h |  |
| CC[C@H](C)[C@H](NC(=O)[C@@H]1CCCN1C(=O)CNC(=O)[C@H](Cc1ccccc1)NC(=O)[C@H](CC(N)=O)NC(=O)C(C)(C)NC(=O)[C@H](CO)NC(=O)[C@H](CO)NC(=O)[C@H](Cc1c[nH]cn1)NC(=O)C(C)(C)NC(=O)[C@H](CC(C)C)NC(=O)[C@H](Cc1ccccc1)NC(=O)[C@H](CC(N)=O)NC(=O)[C@H](C)NC(=O)[C@H](CC(C)C)NC(=O)[C@H](CCCNC(=N)N)NC(=O)[C@H](CCC(N)=O)NC(=O)[C@@H](NC(=O)[C@H](C)NC(=O)[C@@H]1CSSC[C@H](NC(=O)[C@H](CCCCN)NC(=O)[C@@H](N)CCCCNC(=O)CC[C@H](NC(=O)CCCCCCCCCCCCCCCCC(=O)O)C(=O)O)C(=O)N[C@@H](CC(N)=O)C(=O)N[C@@H]([C@@H](C)O)C(=O)N[C@@H](C)C(=O)N[C@@H]([C@@H](C)O)C(=O)N1)[C@@H](C)O)C(=O)N[C@@H](CC(C)C)C(=O)N1CCC[C@H]1C(=O)N1CCC[C@H]1C(=O)N[C@H](C(=O)N[C@@H](CC(N)=O)C(=O)N[C@H](C(=O)NCC(=O)N[C@@H](CO)C(=O)N[C@@H](CC(N)=O)C(=O)N[C@H](C(=O)N[C@@H](Cc1ccc(O)cc1)C(N)=O)[C@@H](C)O)C(C)C)[C@@H](C)O [Peptide 36, K(γE-C18diacid)K[CNTATC]ATQRLANFL(Aib)HSS(Aib)NFGPILPPTNVGSNTY-amide] (H-K([γGlu-C18 diacid])KCNTATCATQRLANFL[Aib]HSS[Aib]NFGPILPPTNVGSNTY-NH2; disulfide 3-8; N-terminus assumed) | 19 | 331 pM | 6390 pM | 7.2 h | 11.6 h |  |
| CC[C@H](C)[C@H](NC(=O)[C@@H]1CCCN1C(=O)CNC(=O)[C@H](Cc1ccccc1)NC(=O)[C@H](CC(N)=O)NC(=O)C(C)(C)NC(=O)[C@H](CO)NC(=O)[C@H](CO)NC(=O)[C@H](Cc1c[nH]cn1)NC(=O)[C@H](CCCNC(=N)N)NC(=O)[C@H](CC(C)C)NC(=O)[C@H](Cc1ccccc1)NC(=O)[C@H](CC(N)=O)NC(=O)[C@H](C)NC(=O)[C@H](CC(C)C)NC(=O)[C@H](CCCNC(=N)N)NC(=O)[C@H](CCC(N)=O)NC(=O)[C@@H](NC(=O)[C@H](C)NC(=O)[C@@H]1CSSC[C@H](NC(=O)[C@H](CCCCN)NC(=O)[C@@H](N)CCCCNC(=O)CC[C@H](NC(=O)CCCCCCCCCCCCCCCCC(=O)O)C(=O)O)C(=O)N[C@@H](CC(N)=O)C(=O)N[C@@H]([C@@H](C)O)C(=O)N[C@@H](C)C(=O)N[C@@H]([C@@H](C)O)C(=O)N1)[C@@H](C)O)C(=O)N[C@@H](CC(C)C)C(=O)N1CCC[C@H]1C(=O)N1CCC[C@H]1C(=O)N[C@H](C(=O)N[C@@H](CC(N)=O)C(=O)N[C@H](C(=O)NCC(=O)N[C@@H](CO)C(=O)N[C@@H](CC(N)=O)C(=O)N[C@H](C(=O)N[C@@H](Cc1ccc(O)cc1)C(N)=O)[C@@H](C)O)C(C)C)[C@@H](C)O [Peptide 65, K(γE-C18diacid)K[CNTATC]ATQRLANFLRHSS(Aib)NFGPILPPTNVGSNTY-amide] (H-K([γGlu-C18 diacid])KCNTATCATQRLANFLRHSS[Aib]NFGPILPPTNVGSNTY-NH2; disulfide 3-8) | 31 | 207 pM | 6400 pM | 6 h | 9.3 h |  |
| CC[C@H](C)[C@H](NC(=O)[C@@H]1CCCN1C(=O)CNC(=O)[C@H](Cc1ccccc1)NC(=O)[C@H](CC(N)=O)NC(=O)C(C)(C)NC(=O)[C@H](CO)NC(=O)[C@H](CO)NC(=O)[C@H](Cc1c[nH]cn1)NC(=O)[C@H](CCCNC(=N)N)NC(=O)[C@H](CC(C)C)NC(=O)[C@H](Cc1ccccc1)NC(=O)[C@H](CC(N)=O)NC(=O)[C@H](C)NC(=O)[C@H](CC(C)C)NC(=O)[C@H](CCCNC(=N)N)NC(=O)[C@H](CCC(N)=O)NC(=O)[C@@H](NC(=O)[C@H](C)NC(=O)[C@@H]1CSSC[C@H](NC(=O)[C@H](CCCCN)NC(=O)[C@@H](N)CCCCNC(=O)CC[C@H](NC(=O)CC[C@H](NC(=O)CCCCCCCCCCCCCCCCC(=O)O)C(=O)O)C(=O)O)C(=O)N[C@@H](CC(N)=O)C(=O)N[C@@H]([C@@H](C)O)C(=O)N[C@@H](C)C(=O)N[C@@H]([C@@H](C)O)C(=O)N1)[C@@H](C)O)C(=O)N[C@@H](CC(C)C)C(=O)N1CCC[C@H]1C(=O)N1CCC[C@H]1C(=O)N[C@H](C(=O)N[C@@H](CC(N)=O)C(=O)N[C@H](C(=O)NCC(=O)N[C@@H](CO)C(=O)N[C@@H](CC(N)=O)C(=O)N[C@H](C(=O)N[C@@H](Cc1ccc(O)cc1)C(N)=O)[C@@H](C)O)C(C)C)[C@@H](C)O [Peptide 66, K(γE-γE-C18diacid)K[CNTATC]ATQRLANFLRHSS(Aib)NFGPILPPTNVGSNTY-amide] (H-K([γGlu-γGlu-C18 diacid])KCNTATCATQRLANFLRHSS[Aib]NFGPILPPTNVGSNTY-NH2; disulfide 3-8) | 17 | 418 pM | 7010 pM | 9.4 h | 12.2 h | >144 h |
| CC[C@H](C)[C@H](NC(=O)[C@@H]1CCCN1C(=O)CNC(=O)[C@](C)(Cc1ccccc1)NC(=O)[C@H](CC(N)=O)NC(=O)[C@H](CC(N)=O)NC(=O)[C@H](CO)NC(=O)[C@H](CO)NC(=O)[C@H](Cc1c[nH]cn1)NC(=O)[C@H](CCCNC(=N)N)NC(=O)[C@H](CC(C)C)NC(=O)[C@H](Cc1ccccc1)NC(=O)[C@H](CC(N)=O)NC(=O)[C@H](C)NC(=O)[C@H](CC(C)C)NC(=O)[C@H](CCCNC(=N)N)NC(=O)[C@H](CCC(N)=O)NC(=O)[C@@H](NC(=O)[C@H](C)NC(=O)[C@@H]1CSSC[C@H](NC(=O)[C@@H](N)CCCCNC(=O)CC[C@H](NC(=O)CCCCCCCCCCCCCCCCC(=O)O)C(=O)O)C(=O)N[C@@H](CC(N)=O)C(=O)N[C@@H]([C@@H](C)O)C(=O)N[C@@H](C)C(=O)N[C@@H]([C@@H](C)O)C(=O)N1)[C@@H](C)O)C(=O)N[C@@H](CC(C)C)C(=O)N1CCC[C@H]1C(=O)N1CCC[C@H]1C(=O)N[C@H](C(=O)N[C@@H](CC(N)=O)C(=O)N[C@H](C(=O)NCC(=O)N[C@@H](CO)C(=O)N[C@@H](CC(N)=O)C(=O)N[C@H](C(=O)N[C@@H](Cc1ccc(O)cc1)C(N)=O)[C@@H](C)O)C(C)C)[C@@H](C)O [Peptide 19, K(γE-C18diacid)[CNTATC]ATQRLANFLRHSSNN(αMePhe)GPILPPTNVGSNTY-amide] (H-K([γGlu-C18 diacid])CNTATCATQRLANFLRHSSNN[αMeF]GPILPPTNVGSNTY-NH2; disulfide 2-7; N-terminus assumed) | 15 | 278 pM | 4040 pM | 6.6 h | 9.3 h | >144 h |
